Here are results for 13 compounds from patent US7790732B2, “5-Chloro-4-alkyl-3,4-dihydro-quinazolin-2-ylamine derivatives” (Hoffman-La Roche Inc., priority 2005, dated 2010).

Molecules are shown by their SMILES. pKi: −log10 of the molar value.

As a reminder, the pKi is the Ki on a negative log10 scale, so that one unit is a factor of ten.

The target of the experiment is T1, recombinant human 5-HT5A receptor (Homo sapiens, UniProt P47898).
T1 construct: expressed in transfected cells; host or cells: HEK-EBNA (Human Embryonic Kidney-EBNA) cells, transient cDNA expression, membranes
T1 sequence (P47898 whole entry): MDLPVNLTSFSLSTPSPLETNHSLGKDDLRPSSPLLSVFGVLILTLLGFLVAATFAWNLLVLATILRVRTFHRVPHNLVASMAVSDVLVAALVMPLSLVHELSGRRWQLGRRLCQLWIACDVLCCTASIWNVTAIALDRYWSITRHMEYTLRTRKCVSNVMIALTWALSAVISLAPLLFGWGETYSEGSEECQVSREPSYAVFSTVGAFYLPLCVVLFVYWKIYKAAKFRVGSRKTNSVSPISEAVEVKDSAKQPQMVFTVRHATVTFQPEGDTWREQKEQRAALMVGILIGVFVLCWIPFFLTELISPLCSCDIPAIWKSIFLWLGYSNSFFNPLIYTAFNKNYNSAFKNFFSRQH
Nature of the experiment: [3H]LSD radioligand binding assay, recombinant human 5-HT5A receptor in HEK-EBNA cell membranes. The note with it: [3H]LSD approximately 1 nM; membranes from HEK-EBNA cells; Ki from IC50 by the Cheng-Prussoff equation. The method, then:
A [^3H] LSD radioligand binding assay was used to determine the affinity of the compounds for the recombinant human 5-HT5A receptor in membranes from transiently (cDNA) expressed 5-HT5A receptors in Human Embryonic Kidney-EBNA (HEK-EBNA) cells. Assay buffer consisted of Tris (50 mM) buffer containing 1 mM EGTA, 10 mM MgCl2 (pH 7.4) and 10 μM pargyline. The binding assay was carried out in 96-well-plates in the presence of [^3H]LSD (approximately 1 nM), approximately 2 μg/well of membrane protein, and 0.5 mg of Ysi-poly-1-lysine SPA beads in a final volume of 200 μl of buffer. Non-specific binding was defined using methiothepin 2 μM. Compounds were tested at 10 concentrations. All assays were conducted in duplicate and repeated at least two times. Assay plates were incubated for 120 min at room temperature before centrifugation. Bound ligand was determined using a Packard Topcount scintillation counter. IC50 values were calculated using a non-linear curve fitting program, and Ki values were calculated using the Cheng-Prussoff equation.
For the compound `CCCCCNC1=Nc2ccc(Cl)c(Cl)c2C(C)N1` (stereo not shown) [Example 18, (5,6-Dichloro-4-methyl-3,4-dihydro-quinazolin-2-yl)-pentyl-amine], the pKi is 7.86.

As to `CNC1=Nc2ccc(Cl)c(Cl)c2C(C)N1` (stereo not shown) [Example 9, (5,6-Dichloro-4-methyl-3,4-dihydro-quinazolin-2-yl)-methyl-amine], the pKi is 8.20. With `CC1NC(NCC(F)F)=Nc2ccc(Cl)c(Cl)c21` (stereo not shown) [Example 10, (5,6-Dichloro-4-methyl-3,4-dihydro-quinazolin-2-yl)-(2,2-difluoro-ethyl)-amine] the figure was 8.25. As for `CNC1=Nc2cccc(Cl)c2C(C)N1` (stereo not shown) [Example 2, (5-Chloro-4-methyl-3,4-dihydro-quinazolin-2-yl)-methyl-amine], the pKi was 7.97. With `CC(=O)NCCNC1=Nc2ccc(Cl)c(Cl)c2C(C)N1` (stereo not shown) [Example 16, N-[2-(5,6-Dichloro-4-methyl-3,4-dihydro-quinazolin-2-ylamino)-ethyl]-acetamide], the pKi is 8.05. The same measure for `CC1NC(N)=Nc2ccc(Cl)c(Cl)c21` (stereo not shown) [Example 8, 5,6-Dichloro-4-methyl-3,4-dihydro-quinazolin-2-ylamine]: 8.70; for `CC1NC(NCC(F)F)=Nc2cccc(Cl)c21` (stereo not shown) [Example 5, (5-Chloro-4-methyl-3,4-dihydro-quinazolin-2-yl)-(2,2-difluoro-ethyl)-amine]: 7.99. Regarding `CC1NC(NCC2COCCO2)=Nc2ccc(Cl)c(Cl)c21` (stereo not shown) [Example 21, (5,6-Dichloro-4-methyl-3,4-dihydro-quinazolin-2-yl)-[1,4]dioxan-2-ylmethyl-amine], the pKi is 7.75. The same measure for `CC1NC(NC2CCC2)=Nc2cccc(Cl)c21` (stereo not shown) [Example 3, (5-Chloro-4-methyl-3,4-dihydro-quinazolin-2-yl)-cyclobutyl-amine]: 7.81; for `CC1NC(N)=Nc2c(Cl)ccc(Cl)c21` (stereo not shown) [Example 23, 5,8-Dichloro-4-methyl-3,4-dihydro-quinazolin-2-ylamine]: 8.23; for `COCCCNC1=Nc2ccc(Cl)c(Cl)c2C(C)N1` (stereo not shown) [Example 19, (5,6-Dichloro-4-methyl-3,4-dihydro-quinazolin-2-yl)-(3-methoxy-propyl)-amine]: 8.16.

Regarding `CC1NC(NC2CCC2)=Nc2ccc(Cl)c(Cl)c21` (stereo not shown) [Example 15, Cyclobutyl-(5,6-dichloro-4-methyl-3,4-dihydro-quinazolin-2-yl)-amine], the pKi is 8.16.

In the case of `CC1NC(N)=Nc2cccc(Cl)c21` (stereo not shown) [Example 1, 5-Chloro-4-methyl-3,4-dihydro-quinazolin-2-ylamine], the pKi is 8.29.
